Reference: patent US20040043919A1, “Method for the treatment of neurological and neuropsychological disorders” (priority 2003, published 2004)
One block for each molecule: values may come before it.

How the values were obtained:
rats = conditions: administered into the dorsal periaqueductal gray matter; cited from earlier work
[1] = biological target: T1, attractin from human plasma (Homo sapiens, UniProt O75882); test: Proteolytic activity of purified attractin (chromogenic substrate kinetics); type: biochemical
T1 construct: was prepared from 100 ml plasma from healthy humans; tissue Baxter GmbH Germany, Plasmazentrum Halle (supplier of the plasma); host or cells: human plasma
T1 sequence (O75882 84-1272 isoform O75882-2 limits assumed): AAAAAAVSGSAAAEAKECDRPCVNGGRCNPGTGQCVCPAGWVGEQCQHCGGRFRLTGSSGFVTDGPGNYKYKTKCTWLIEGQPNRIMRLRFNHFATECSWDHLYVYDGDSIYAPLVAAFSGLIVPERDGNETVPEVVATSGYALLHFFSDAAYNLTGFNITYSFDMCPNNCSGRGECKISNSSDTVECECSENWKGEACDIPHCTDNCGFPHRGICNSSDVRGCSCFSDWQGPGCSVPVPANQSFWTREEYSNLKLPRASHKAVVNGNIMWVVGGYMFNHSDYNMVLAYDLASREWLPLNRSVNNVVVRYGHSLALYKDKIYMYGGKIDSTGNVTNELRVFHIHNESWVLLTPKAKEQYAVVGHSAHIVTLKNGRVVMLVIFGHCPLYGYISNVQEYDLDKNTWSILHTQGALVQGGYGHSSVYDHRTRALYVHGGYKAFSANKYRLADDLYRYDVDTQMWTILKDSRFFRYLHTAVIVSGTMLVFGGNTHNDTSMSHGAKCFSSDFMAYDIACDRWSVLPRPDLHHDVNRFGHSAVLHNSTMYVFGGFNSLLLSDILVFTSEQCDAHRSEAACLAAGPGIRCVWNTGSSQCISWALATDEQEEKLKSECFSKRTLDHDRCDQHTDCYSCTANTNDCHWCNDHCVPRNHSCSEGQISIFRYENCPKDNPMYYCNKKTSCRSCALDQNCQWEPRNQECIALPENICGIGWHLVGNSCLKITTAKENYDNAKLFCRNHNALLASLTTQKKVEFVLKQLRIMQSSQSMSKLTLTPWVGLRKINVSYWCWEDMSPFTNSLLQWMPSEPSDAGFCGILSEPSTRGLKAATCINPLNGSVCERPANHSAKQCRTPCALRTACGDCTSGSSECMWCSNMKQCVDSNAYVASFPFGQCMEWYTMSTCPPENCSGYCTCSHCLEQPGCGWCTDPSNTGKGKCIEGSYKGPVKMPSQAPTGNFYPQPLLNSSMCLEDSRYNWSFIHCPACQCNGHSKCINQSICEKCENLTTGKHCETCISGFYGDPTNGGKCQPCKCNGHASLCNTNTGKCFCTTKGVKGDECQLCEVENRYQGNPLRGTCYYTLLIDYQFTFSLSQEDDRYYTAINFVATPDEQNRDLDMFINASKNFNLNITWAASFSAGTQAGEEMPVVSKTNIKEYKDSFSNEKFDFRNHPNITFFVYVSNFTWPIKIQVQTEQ
Method: (§1) Attractin from human plasma (Baxter GmbH Germany, Plasmazentrum Halle) was prepared from 100 ml plasma from healthy humans. Matrix-assisted laser desorption/ionisation mass spectrometry was carried out using the Hewlett-Packard G2025 LD-TOF System.
(§2) In further studies the proteolytic activity of attractin has been investigated. […] In addition, the cleavage of bioactive peptides such as NP Y, RANTES, GIP, and Glucagon by purified attractin has been analyzed. […] Previously, differences within hydrolysis of the chemokine RANTES by DP IV and attractin have been described^4.

[2] = biological target: T1, attractin from human plasma; test: MALDI-TOF analysis of peptide cleavage by purified attractin in presence or absence of isoleucyl-thiazolidine; type: biochemical; conditions: peptide 25 μM, 37° C.; for Cleavage of bioactive peptide by purified attractin: tricine/HCl pH 7.6, MALDI-TOF (FIG. 1)
Method: as §1
To obtain spectra of peptides (25 μM) by the treatment of purified DP IV and attractin in the presence or absence of isoleucyl-thiazolidine (10 μM), substrates were incubated at 37° C. with 40 mM tricine/HCl buffer pH 7.6 and enzyme solution in a 2:2:1 ratio. Samples of the reaction mixtures were removed at various time intervals and mixed with equal volumes of the matrix solution. By mixing assay sample and matrix, the low pH of the matrix solution stopped the enzymatic reaction. A small volume of this mixture was transferred to a probe tip and immediately evaporated in a Hewlett-Packard G2024A Sample Prep Accessory.
as §2

[3] = tested on: olfactory bulbectomized rats; conditions: 7-day i.c.v. administration; cited from earlier work
[4] = Anxiolytic effect on administration of the attractin inhibitor; type: in vivo; conditions: no method or data given

Molecule: NC(N)=NCCC[C@@H](NC(=O)C(c1ccccc1)c1ccccc1)C(=O)NCc1ccc(O)cc1 [BIBP3226]
- Time spent in active social interaction (rats): decreased the time spent in active social interaction

- Km [1]: 140 µM
Molecule: NCC(=O)N1CCCC1C(=O)Nc1ccc([N+](=O)[O-])cc1 (stereo not drawn) [Gly-Pro-pNA]

Molecule: Neuropeptide Y [NP Y]
- Cleavage of bioactive peptide by purified attractin [2]: capable of releasing the N-terminal dipeptide Tyr-Pro
- Behavioral and neurotransmitter deficits [3]: attenuated behavioral and neurotransmitters deficits

Molecule: RANTES1-15: synthetic N-terminal fragment 1-15 of the chemokine RANTES (SPYSSDTTPCCFAYI; UniProt P13501 24-38, looked up, fragment)
- Cleavage of bioactive peptide by purified attractin [2]: capable of releasing sequentially the first (Ser-Pro) as well as the second dipeptide (Tyr-Ser)

Molecule: isoleucyl-thiazolidine hemifumarate
- Cleavage of NP Y by attractin in presence of inhibitor ([2]; isoleucyl-thiazolidine 10 μM, pH 7.6, MALDI-TOF (FIG. 1B)): the cleavage was suppressed
- Anxiolytic effect [4]: exhibits an anxiolytic effect
